Assay results: US20260176284A1, “Compounds with Anti-KRAS Mutated Tumor Activity” (Trasveda Ltd., priority 2022, published 2026)
Blank lines part the entries; values can stand above or below the compound they belong to.

What was measured:
[1] = test system: KRAS G12D mutated AGS (3D) cells; assay: Proliferation inhibition of KRAS G12D mutated AGS (3D) cells (methylcellulose 3D culture, CTG, 120 h); format: cell-based; conditions: Homo sapiens
Protocol: The inhibitory effect of representative compounds on the 3D proliferation of the AGS cell line was evaluated by non-adherent, spherical growth in a methylcellulose 3D culture medium.
The following materials, instruments and reagents were used in this experiment: Culture medium RPMI1640 (HyClone, Cat #SH30809.01); Fetal bovine serum FBS (GBICO, Cat #10099-141); CellTiter-Glo® Luminescent Cell Viability Assay (Novozymes Nanjing, Cat #DD1101-04); 96-well Polystyrene microplates (black-wall) (Greiner Bio one, Cat. #655096); Methylcellulose (SIGMA, CAS: 9004-67-5); AGS cells (KC-0405, Kangyuan Bochuang Biotechnology (Beijing) Co., Ltd.); Multifunctional microplate reader (BMG LABTECH, CLARIOstar® Plus); CO2 incubator (Thermo Scientific, Model 3100 Series).
Cell Culture and Inoculation: The cells in the logarithmic growth phase were harvested and cell counting was performed using a platelet counter. The cell viability was detected by Trypan Blue exclusion method to ensure that the cell viability was above 90%. The cell concentration was adjusted. After there were no visible air bubbles in the cell suspension, 180 μL of the cell suspension was added to each well of a 96-well plate respectively, so that the final concentration of methylcellulose was 0.65% and the number of cells was 2400 per well. The cells in the 96-well plate were cultured overnight at 37° C., 5% CO2 and 95% humidity.
The drug dilution and administration were carried out as follows: A 10-fold concentrated drug solution was prepared with the culture medium. 20 μL of the drug solution was added to each well of the 96-well plate inoculated with cells to make the maximum working concentration 10 μM, with a 3.16× dilution, a total of 9 concentrations. Three replicate wells were set for each drug concentration and the DMSO content was 0.1%. The cells in the 96-well plate with the added drugs were continuously cultured at 37° C., 5% CO2 and 95% humidity for 120 h, and then a CTG analysis was performed.
(§1) The CTG reagent was thawed and the cell plate was equilibrated to room temperature for 30 minutes. An equal volume of CTG solution was added to each well, and the plate was shaken on an orbital shaker for 5 minutes to lyse the cells. The cell plate was placed at room temperature for 20 minutes to stabilize the luminescence signal, and then the luminescence value was read.
The data were analyzed using GraphPad Prism 7.0 software. The data were fitted by nonlinear S-curve regression to obtain the dose-response curve, and the IC50 value was calculated accordingly. Cell survival rate (%)=(LumTest drug−LumMedium control)/(LumCell control−LumMedium control)×100%.

[2] = test system: KRAS G12D mutated AGS human gastric adenocarcinoma cells; assay: Proliferation inhibition of KRAS G12D mutant AGS cells (CellTiter-Glo, 3 days; IC50 and single-point inhibition rate at 1 μM); format: cell-based; conditions: 72 h, 3 days incubation, max concentration 10 μM
Protocol: This experiment assessed and validated the proliferation inhibitory activity of some compounds of the present invention against KRAS G12D mutant AGS cells.
Incubate at 37° C., 5% CO2, 95% humidity.
The following materials, instruments, and reagents were used in this experiment: Fetal Bovine Serum FBS (GIBCO, Cat #10099-141); CellTiter-Glo® Luminescent Cell Viability Assay (Promega, Cat #G7572); 96-well clear flat-bottom black-wall plate (Corning®, Cat #3603); SpectraMax multimode microplate reader (MD, 2104-0010A); CO2 Incubator (Thermo Scientific, Model 3100 Series); Biosafety cabinet (Thermo Scientific, Model 1300 Series A2); Inverted microscope (Olympus, CKX41SF); AGS cell line was purchased from Nanjing Kebai Biotechnology Co., Ltd., under the lot number CBP60476.
Cell culture and inoculation: The cells in the logarithmic growth phase were harvested, and cell counting was performed using a platelet counter. The cell viability was detected by Trypan Blue exclusion method to ensure that the cell viability was above 90%. The cell concentration was adjusted. Then, 90 μL of the cell suspension was added to each well of a 96-well plate respectively, and the cells in the 96-well plate were cultured at 37° C. and 5% CO2.
Drug dilution and addition: a) For the preparation of drugs for single-point inhibition rate determination: A 10-fold concentrated drug solution was prepared. 10 μL of the drug solution was added to each well of the 96-well plate inoculated with cells to make the working concentration 1 μM, and three replicate wells were set for each drug concentration; b) For the preparation of drugs for IC50 determination: A 10-fold concentrated drug solution was prepared. 10 μL of the drug solution was added to each well of the 96-well plate inoculated with cells to make the maximum working concentration 10 μM, with a 3.16× dilution and a total of 9 concentrations. Three replicate wells were set for each drug concentration. The cells in the 96-well plate with the added drugs were incubated at 37° C. and 5% CO2 for another 3 days, and then the CTG assay was performed.
as §1, with “thawed,” for “thawed”
The data were analyzed using GraphPad Prism 7.0 software. The data were fitted by nonlinear S-curve regression to obtain the dose-response curve, and the IC50 value was calculated accordingly.

AsPC-1 cells = assay: 3D proliferation inhibition of KRAS G12D mutated tumor cells, AsPC-1; format: cell-based; conditions: Homo sapiens, ASPC1, 3D methylcellulose culture, CTG, 120 hours
Text: (§2) This experiment evaluated and verified the proliferation inhibitory activity of the representative compounds of the present invention against the following five strains of KRAS-related tumor cells.
(§3) The following materials, reagents and instruments were used in this experiment: Five strains of cells were all from Nanjing Kebai Biotechnology Co., Ltd. (GP2D, CBP60010; HPAC, CBP60539; AsPC-1, CBP60546; KP-4, CBP60541; Panc 04.03, CBP60683); DMEM (Gibco, 11965092); RPMI-1640 (Gibco, SH30809.01); HPAC complete medium (Cobioer, CBP60539M); Fetal bovine serum FBS (Gibco, 10091-148); Insulin (Gibco, 41400045); Methylcellulose (methylcellulose, Sigma, 9004-67-5); Phosphate-buffered saline DPBS (Comning, 21-031-CVC); CellTiter-Glo® Luminescent Cell Viability Assay (Promega, Cat #G7573); 96-well clear flat-bottom black-wall plate (Corning, 3603); EnVision multilabel plate reader (PerkinElmer #2105); CO2 incubator (Thermo Scientific, Model 3 71 Series).
A sterilized 1% methylcellulose 3D culture medium was prepared in advance. The cells in the logarithmic growth phase were harvested, and a Countstar automatic cell counter based on the principle of the classic trypan blue staining method was used for cell counting and detecting cell viability to ensure that the cell viability was above 90%. The cell concentrations of GP2D, HPAC, AsPC-1, KP-f4, and Panc 04.03 were adjusted so that the final concentration of methylcellulose was 0.65%, and the mixture was allowed to stand after being well-mixed. […]
(§4) The cells in the 96-well plate with the added drugs were further cultured at 37° C. and 5% CO2 for 120 hours, and then a CTG analysis was performed. […] The cell plate was placed at room temperature for 20 minutes to stabilize the luminescence signal. The luminescence value was read, and the data were collected.
(§5) The data were analyzed using GraphPad Prism 9.0 software. Non-linear S-curve regression was used to fit the data to obtain the dose-response curve, and the IC50 value (nM) was calculated accordingly. […]

Panc 04.03 cells = assay: 3D proliferation inhibition of KRAS G12D mutated tumor cells, Panc 04.03; format: cell-based; conditions: CTG, 120 hours
Text: as §2, §3
(§6) A sterilized 1% methylcellulose 3D culture medium was prepared in advance. The cells in the logarithmic growth phase were harvested, and a Countstar automatic cell counter based on the principle of the classic trypan blue staining method was used for cell counting and detecting cell viability to ensure that the cell viability was above 90%. The cell concentrations of GP2D, HPAC, AsPC-1, KP-f4, and Panc 04.03 were adjusted so that the final concentration of methylcellulose was 0.65%, and the mixture was allowed to stand after being well-mixed. After there were no visible air bubbles in the cell suspension, 80 μL of the cell suspension was added to each well of a 96-well plate, with a total of 1000-2000 cells. The cells in the 96-well plate were cultured overnight at 37° C., 5% CO2, and 95% humidity.
(§7) Drug Preparation for IC50 Determination: First, a 10 mM DMSO stock solution of each compound was prepared. For the first dilution, using DMSO as the solvent, each compound was first diluted to 5 mM and then serially diluted 3-fold to obtain 9 concentrations, preparing DMSO solutions of each compound at different concentrations. For the second dilution, a 5-fold diluted solution of each compound was prepared by a 1:100 dilution, using the complete medium as the solvent. […]
as §4, §5

[3] = test system: KRAS G12D mutated AGS human gastric adenocarcinoma cells; assay: Proliferation inhibition of KRAS G12D mutant AGS cells, another experiment with similar protocol (includes MRTX1133); format: cell-based
Protocol: In another experiment, using a protocol similar to the one described above, the inhibitory activity of some representative compounds of the present invention against KRAS G12D mutated AGS human gastric adenocarcinoma cells was determined.
The synthesis of compound MRTX1133 was performed according to the method described in J. Med. Chem. 2022, 65, 4, 3123-3133.

GP2D cells = assay: 3D proliferation inhibition of KRAS G12D mutated tumor cells, GP2D; format: cell-based, human; conditions: 3D methylcellulose culture, CTG, 120 hours
Text: as §2, §3, §6, §7, §4, §5

KP-4 cells = assay: 3D proliferation inhibition of KRAS G12D mutated tumor cells, KP-4; format: cell-based; conditions: CTG, 120 hours
Text: as §2, §3, §6, §7, §4, §5

HPAC cells = assay: 3D proliferation inhibition of KRAS G12D mutated tumor cells, HPAC; format: cell-based, human; conditions: 3D methylcellulose culture, CTG, 120 hours
Text: as §2, §3, §6, §7, §4, §5

Compound: C#Cc1c(F)ccc2cc(O)cc(-c3c(F)cc4c(N5CC6CCC(C5)N6)nc(OC[C@]5(C)CN(CC=C)CCC5(F)F)nc4c3F)c12 (atropisomer, axis not shown; (Ra)) [Example 42]
IC50 [1]: 0.047 µM | IC50 [2]: 0.15 µM

IC50 (AsPC-1 cells): 0.0183 µM | IC50 (Panc 04.03 cells; Homo sapiens, Panc 04.03, 3D methylcellulose culture): 0.0206 µM | IC50 ([3]; Homo sapiens): 0.028 µM | IC50 (GP2D cells; Homo sapiens, GP2d): 0.003 µM | IC50 (KP-4 cells; Homo sapiens, KP-4, 3D methylcellulose culture): 0.0426 µM | IC50 (HPAC cells; Homo sapiens, HPAC): 0.00819 µM
Compound: C#Cc1c(F)ccc2cc(O)cc(-c3ncc4c(N5CC6CCC(C5)N6)nc(OC[C@@]56CCCN5C[C@H](F)C6)nc4c3F)c12 [MRTX1133, reference compound]

Compound: C#Cc1c(F)ccc2cc(O)cc(-c3c(F)cc4c(N5CC6CCC(C5)N6)nc(OC[C@]5(C)CN(CCF)CCC5(F)F)nc4c3F)c12 (atropisomer, axis not shown; (Ra)) [Example 44, (Ra)-4-(4-((1R,5S)-3,8-diazabicyclo[3.2.1]octan-3-yl)-2-(((S)-4,4-difluoro-1-(2-fluoroethyl)-3-methylpiperidin-3-yl)methoxy)-6,8-difluoroquinazolin-7-yl)-5-ethynyl-6-fluoronaphthalen-2-ol]
IC50 [1]: 0.118 µM | IC50 [2]: 0.217 µM

Compound: C#Cc1c(F)ccc2cc(O)cc(-c3c(F)cc4c(N5CC6CCC(C5)N6)nc(OC[C@]5(C)CN(C)CCC5(F)F)nc4c3F)c12 [Example 6-2]
IC50 [1]: 0.017 µM | IC50 [2]: 0.032 µM

Compound: C#Cc1c(F)ccc2cc(O)cc(-c3c(F)cc4c(N5CC6CCC(C5)N6)nc(OC[C@]5(C)CN(CC)CCC5(F)F)nc4c3F)c12 (atropisomer, axis not shown; (Ra)) [Example 43, (Ra)-4-(4-((1R,5S)-3,8-diazabicyclo[3.2.1]octan-3-yl)-2-(((S)-1-ethyl-4,4-difluoro-3-methylpiperidin-3-yl)methoxy)-6,8-difluoroquinazolin-7-yl)-5-ethynyl-6-fluoronaphthalen-2-ol]
IC50 [1]: 0.011 µM | IC50 [2]: 0.037 µM

IC50 (Panc 04.03 cells; 3D methylcellulose culture): 0.00134 µM | IC50 [3]: 0.004 µM | IC50 (GP2D cells): 0.00039 µM | IC50 (KP-4 cells; 3D methylcellulose culture): 0.00474 µM | IC50 (HPAC cells): 0.0041 µM
Compound: CN1CC/C(=C\F)[C@](C)(COc2nc(N3C[C@H]4CC[C@@H](C3)N4)c3cc(Cl)c(-c4c(F)ccc5sc(N)c(C#N)c45)c(F)c3n2)C1 (single isomer, unassigned) [Example 324-1]
